Laboratory results taken from US7351546B2, “Flow cytometric, whole blood dendritic cell immune function assay” (Becton, Dickinson and Company, priority 1998, dated 2008).
“Also recorded” adds a separate entry of the source.

Assays:
Type in all cases: cell-based, human
monocytes = settings: activated whole blood with BFA
Experimental: The cytokine expression of monocytes was evaluated in some of the same samples. Monocytes were identified based on their scatter characteristics, their bright lin 1 FITC, anti-HLA-DR PerCP and CD11c APC staining. […] Intracellular protein secretion is evaluated as PE mean fluorescence intensity (MFI).

CD11c^+ DCs = assay: Cytokine kinetic assay in LPS activated CD11c+ DCs; settings: 1 μg/ml LPS, time course 0 to 8 hours
Experimental: The time course of LPS incubation was 0 to 8 hours. Intracellular cytokine and CD80 expression is measured as PE mean fluorescence intensity (MFI).
Whole blood was stimulated with 1 μg/ml LPS and incubated in polypropylene tubes (12×75 mm) at 37° C. in a humidified atmosphere containing 5% CO2. Aliquots were processed, essentially as set forth in Examples 1 and 2 above, every hour from 0 to 8 hrs post stimulation. One hour prior to each sample harvest, BFA was added at 10 μg/mL.

CD11c^− DCs = settings: CD11c− subset; whole blood; activator 4 hours at 37° C. without Brefeldin A
Experimental: (§1) Venous blood of normal donors was collected in sodium heparin […]® tubes. For activation with LPS, the blood was stimulated with 1 μg/mL LPS. […] PMA was then added at 5 ng/mL and ionomycin at 1 μg/mL. For activation by CD40 crosslinking, 50 μL CD40-coated polystyrene beads was added to 1 mL whole blood. All samples were incubated for four hours at 37° C. in a humidified incubator with 5% CO2.
For detection of changes in surface antigen expression, samples were incubated with DC activator, as above, without the further addition of BFA. Control (resting) aliquots were incubated with neither BFA nor activator.
Cell preparation was done at room temperature (RT) and all incubation steps were performed in the dark.
For staining, 150 μL of sample (activated or resting blood control) was added to a cocktail of monoclonal antibodies in a staining tube.
After incubation, 3 mL of FACS® Lysing Solution was added and the tube incubated for 10 min at RT. The lysed cells were centrifuged for 5 min at 500×g and subsequently washed with 3 mL buffer (DPBS 1×, 0.5% fetal calf serum). The cell pellet was resuspended in 250 μL buffer and immediately acquired on a flow cytometer. If data acquisition was delayed, the cells were maintained at 4° C. for up to one hour.
The samples as described above were acquired on a FACSCalibur™ dual laser flow cytometer (BDIS, San Jose, Calif.). […]

CD11c^−CD123^+ DCs = settings: CD11c−CD123+ subset; whole blood
Experimental: as §1
(§2) For detection of intracellular cytokines, activation, as above, was performed in the presence additionally of Brefeldin A (BFA) at 10 μg/mL. Control (resting) aliquots were incubated with BFA alone.
(§3) Cell preparation was done at room temperature (RT), and all incubation steps were performed in the dark.
(§4) For staining, 1 mL of sample (activated or resting blood control) was added to a cocktail of dendritic cell-distinguishing antibodies (20 μL lineage cocktail 1-FITC, 10 μL HLA-DR PerCP, 5 μL CD11c APC; reagent volumes per 50 μL blood) in a 50 mL polypropylene centrifuge tube. The blood was incubated in the presence of the fluorophore-conjugated antibodies for 15 min. After incubation, 40 mL FACS® Lysing Solution was added and the tube incubated for a further 10 min. The cells were then collected by centrifugation for 10 min at 500×g, and the pellet gently broken off for further processing. Next, 10 mL FACS® Permeabilizing Solution was added and the cells were incubated for 10 min. […]

CD11c^+CD123^low DCs = settings: CD11c+ subset; whole blood; activator 4 hours at 37° C. with Brefeldin A
Experimental: as §1, §2, §3, §4

Lipopolysaccharide [LPS]
cytokine expression of monocytes compared with CD11c+ DCs (PE MFI) (monocytes): higher levels; also recorded: much more potently | order of cytokine production (kinetics of the response) (CD11c^+ DCs): TNFα is produced first, followed by IL-1β and IL-6 | time of activation after which CD80 is intensely upregulated (CD11c^+ DCs): about 4 hours | CD80 change in surface expression (ratio of MFI activated versus control) (CD11c^− DCs): upregulation; also recorded: strongest signal | CD86 change in surface expression (ratio of MFI activated versus control) (CD11c^− DCs): upregulation | production of any of the tested cytokines (CD11c^−CD123^+ DCs): absence of detectable cytokine production; also recorded: fail to respond | IL-12 expression (intracellular, MFI) (CD11c^+CD123^low DCs): trace levels
